From ChEMBL document CHEMBL1127710 (Bioorg Med Chem Lett, 1994)

Legend:
Phosphodiesterase 4 [1] = target: T1, Phosphodiesterase 4 (Homo sapiens, UniProt P27815+Q08499+Q07343+Q08493); experiment: Inhibition of cAMP-specific Phosphodiesterase 4 (PDE IV); type: protein assay
Phosphodiesterase 4 [2] = target: T1, Phosphodiesterase 4; experiment: Inhibition of rolipram binding to Phosphodiesterase 4; type: protein assay

SMILES	Ki (Phosphodiesterase 4 [1]) [µM]	Kd (Phosphodiesterase 4 [2]) [µM]
O=C1CC(c2ccc3c(c2)OC2(CCCCC2)O3)CN1 (configuration not stated)	63.9	16.5
O=C1CC(c2cc(OC3CCCC3)c3occc3c2)CN1 (configuration not stated)	0.26	0.03
O=C1CC(c2cc3c(c(OC4CCCC4)c2)OCC3)CN1 (configuration not stated)	3.69	4

Continued, values first:

Ki (Phosphodiesterase 4 [1]) [µM]	Kd (Phosphodiesterase 4 [2]) [µM]	SMILES
1.17	0.21	O=C1CC(c2cc3c(c(OC4CCCC4)c2)OCCC3)CN1 (configuration not stated)
> 100	> 100	O=C1CC(c2ccc3c(c2)OCO3)CN1 (configuration not stated)
> 100	> 100	O=C1CC(c2ccc3c(c2)OCCO3)CN1 (configuration not stated)
